SMILES strings stand for the structures.

T1 sequence (P01116 1-169 isoform P01116-2 G12C/C51S/C80L/C118S): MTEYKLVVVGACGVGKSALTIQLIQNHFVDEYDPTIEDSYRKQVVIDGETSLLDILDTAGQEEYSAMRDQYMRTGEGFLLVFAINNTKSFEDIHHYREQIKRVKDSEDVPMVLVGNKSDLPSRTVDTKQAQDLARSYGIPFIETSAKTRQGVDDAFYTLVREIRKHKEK

One assay addresses T1, protein-protein interaction between SOS1 and KRAS G12C (Homo sapiens, UniProt P01116, C118S/C51S/C80L/G12C).
T1 construct: His6 (N)
Nature of the assay: KRAS::SOS1 AlphaScreen binding assay. To be noted: Table 36. As to the method: KRAS::SOS1 AlphaScreen Binding Assay
Assay buffer: • 1×PBS • 0.1% BSA • 0.05% Tween 20
AlphaLISA Glutathione Acceptor Beads and AlphaScreen Streptavidin Donor Beads are mixed in assay buffer at a concentration of 10 μg/mL (final assay concentration) each prior to use and kept at room temperature.
Compounds are diluted to a final start concentration of 100 μM and are tested in duplicate. […] For compound a start concentration of 100 μM, 150 nL of compound solution is transferred per well in 11 concentrations in duplicate with serial 1:5 dilutions.
The assay is run using a fully automated robotic system in a darkened room below 100 Lux. 10 μL of KRAS::SOS1 GDP mix is added into columns 1-24 to the 150 nL of compound solution (final dilution in the assay 1:100, final DMSO concentration 1%).
After 30 minutes incubation time 5 μL of bead mix is added into columns 1-23. Plates are kept at room temperature in a darkened incubator. After further 60 minutes incubation, the signal is measured using a PerkinElmer Envision HTS Multilabel Reader using the AlphaScreen specifications from PerkinElmer. Each plate contains the following controls: • diluted DMSO+KRAS::SOS1 GDP mix+bead mix • diluted DMSO+KRAS::SOS1 GDP mix
IC50 values are calculated and analyzed using a 4 parametric logistic model.
In general terms: Alpha assays give light when donor and acceptor beads are brought close together.
As a reminder, the IC50 is the point on the concentration scale where inhibition reaches its midpoint. `C=CC(=O)N1CCN(c2cc(-c3noc(C4(C)CCCc5sc(N)c(C#N)c54)n3)nc(N3CCN4CCC[C@@H]4C3)c2)CC1` (some centres unmarked) [Ia-153] registered an IC50 of 0.031 µM.
Regarding `C=CC(=O)N1CCN(c2cc(-c3noc(C4(C)CCC(C)c5sc(N)c(C#N)c54)n3)nc(N3CCN(CC4CC4)CC3)c2)CC1` (centres unmarked) [Ia-106], the IC50 was determined as 0.18 µM.
In turn, `C=CC(=O)N1CCC(Oc2cc(-c3noc(C4(C)CCCc5sc(N)c(C#N)c54)n3)nc(N3CCC(N4CCOCC4)CC3)c2)CC1` (centres unmarked) [Ia-30] returned a 50% inhibitory concentration (IC50) of 0.103 µM.
Regarding `C=CC(=O)N1CCN(c2cc(-c3noc(C4(C)CCCc5sc(N)c(C#N)c54)n3)nc(N3CCN(C4CCCC4)CC3)c2)CC1` (centres unmarked) [Ia-122], the IC50 was found to be 0.071 µM.
On to `C=CC(=O)N1CCN(c2cc(-c3noc(C4(C)CCCc5sc(N)c(C#N)c54)n3)nc(N3CCN4CCCCC4C3)c2)CC1` (centres unmarked) [Ia-149], for which the concentration for half-maximal inhibition (IC50) came out at 0.047 µM.
The compound `C=CC(=O)N1CCC(Oc2cc(-c3noc(C4(C)CCCc5sc(N)c(C#N)c54)n3)nc(N3CCN(C)CC3)c2)CC1` (centres unmarked) [Ia-141] registered an IC50 of 0.071 µM.
Compound `C=CC(=O)N1CCN(c2cc(-c3noc(C4(C)CCCc5sc(N)c(C#N)c54)n3)nc(N3CCN(C)CC3)c2)CC1C` (centres unmarked) [Ia-108] came in with a 50% inhibitory concentration (IC50) of 0.182 µM.
Regarding `C=CC(=O)N1CCN(c2cc(-c3noc(C4(C)CCCc5sc(N)c(C#N)c54)n3)nc(N3CCN(CC4CC4)CC3)c2)CC1` (centres unmarked) [Ia-121], the IC50 was determined as 0.05 µM.
Take `C=CC(=O)N1CCN(c2cc(-c3noc(C4(C)CCCc5sc(N)c(C#N)c54)n3)nc(N3CCN(CC)CC3)c2)CC1` (centres unmarked) [Ia-123]: the IC50 came out at 0.039 µM.
Take `C=CC(=O)N1CCN(c2cc(-c3noc(C4(C)CCCc5sc(N)c(C#N)c54)n3)nc(N3CCN(C(C)C)C(C)C3)c2)CC1` (centres unmarked) [Ia-150]: the half-inhibitory concentration (IC50) was determined as 0.071 µM.
In turn, `C=CC(=O)N1CCN(c2cc(OCCCN(C)C)cc(-c3noc(C4(C)CCCc5sc(N)c(C#N)c54)n3)c2)CC1` (centres unmarked) [Ia-142] came in with an IC50 of 0.176 µM.
With `C=CC(=O)N1CCC(Oc2cc(-c3noc([C@@]4(C)CCCc5sc(N)c(C#N)c54)n3)nc(N3CCN(C)CC3)c2)CC1` [Ia-91], the IC50 came out at 0.049 µM.
Compound `C=CC(=O)N1CCN(c2cc(-c3noc(C4(C)CCCc5sc(N)c(C#N)c54)n3)nc(N3CCN(C)CC3)c2)CC1` (centres unmarked) [Ia-87] showed an IC50 of 0.051 µM.
`C=CC(=O)N1CCN(c2cc(-c3noc(C4(C)CCCc5sc(N)c(C#N)c54)n3)nc(N3CCN(C4CCC(F)(F)CC4)CC3)c2)CC1` (centres unmarked) [Ia-24]: the IC50 worked out at 0.406 µM.
On to `C=CC(=O)N1CCN(c2cc(-c3noc(C4(C)CCCc5sc(N)c(C#N)c54)n3)nc(N3C4CCC3CN(C)C4)c2)CC1` (centres unmarked) [Ia-16], for which the IC50 came out at 0.106 µM.
As for `C=CC(=O)N1CCC(Oc2cc(-c3noc(C4(C)CCC(C)c5sc(N)c(C#N)c54)n3)nc(N3CCN(C)CC3)c2)CC1` (centres unmarked) [Ia-120], the IC50 is 0.405 µM.
On the same count and under the same terms, in the case of `C=CC(=O)N1CCN(c2cc(-c3noc(C4(C)CCCc5sc(N)c(C#N)c54)n3)nc(N3C[C@@H](C)N(CC)[C@@H](C)C3)c2)CC1` (some centres unmarked) [Ia-21] it was 0.051 µM; in that of `C=CC(=O)N1CCN(c2cc(-c3noc([C@@]4(C)CC[C@H](C)c5sc(N)c(C#N)c54)n3)nc(N3CCN(C4CCCC4)CC3)c2)CC1` [Ia-11], 0.125 µM; in that of `C=CC(=O)N1C[C@@H]2CN(c3cc(-c4noc(C5(C)CCCc6sc(N)c(C#N)c65)n4)nc(N4CCN(C5CCCC5)CC4)c3)[C@@H]2C1` (some centres unmarked) [Ia-9], 0.216 µM.

The subject of another assay is pERK (Thr202/Tyr204) in NCI-H358 (KRAS G12C mutation). The assay can be described thus: ERK phosphorylation assay 1 (AlphaLISA SureFire Ultra p-ERK1/2). Particulars: Homo sapiens, NCI-H358, read-out: IC50 H358 pERK.
Regarding `C=CC(=O)N1CCN(c2cc(-c3noc(C4(C)CCCc5sc(N)c(C#N)c54)n3)nc(N3CCN4CCC[C@@H]4C3)c2)CC1` (some centres unmarked) [Ia-153], the IC50 is 0.0116 µM.
As for `C=CC(=O)N1CCN(c2cc(-c3noc(C4(C)CCC(C)c5sc(N)c(C#N)c54)n3)nc(N3CCN(CC4CC4)CC3)c2)CC1` (centres unmarked) [Ia-106], the IC50 came to 0.0252 µM.
As for `C=CC(=O)N1CCC(Oc2cc(-c3noc(C4(C)CCCc5sc(N)c(C#N)c54)n3)nc(N3CCC(N4CCOCC4)CC3)c2)CC1` (centres unmarked) [Ia-30], the IC50 was 0.0201 µM.
Consider `C=CC(=O)N1CCN(c2cc(-c3noc(C4(C)CCCc5sc(N)c(C#N)c54)n3)nc(N3CCN(C4CCCC4)CC3)c2)CC1` (centres unmarked) [Ia-122], for which the concentration for half-maximal inhibition (IC50) worked out at 0.0193 µM.
`C=CC(=O)N1CCN(c2cc(-c3noc(C4(C)CCCc5sc(N)c(C#N)c54)n3)nc(N3CCN4CCCCC4C3)c2)CC1` (centres unmarked) [Ia-149]: the concentration for half-maximal inhibition (IC50) is 0.0086 µM.
As for `C=CC(=O)N1CCC(Oc2cc(-c3noc(C4(C)CCCc5sc(N)c(C#N)c54)n3)nc(N3CCN(C)CC3)c2)CC1` (centres unmarked) [Ia-141], the 50% inhibitory concentration (IC50) is 0.0396 µM.
In the case of `C=CC(=O)N1CCN(c2cc(-c3noc(C4(C)CCCc5sc(N)c(C#N)c54)n3)nc(N3CCN(C)CC3)c2)CC1C` (centres unmarked) [Ia-108], the half-maximal inhibitory concentration (IC50) was 0.0198 µM.
The same measure, in the same setting: in the case of `C=CC(=O)N1CCN(c2cc(-c3noc(C4(C)CCCc5sc(N)c(C#N)c54)n3)nc(N3CCN(CC4CC4)CC3)c2)CC1` (centres unmarked) [Ia-121] it was 0.0099 µM; in that of `C=CC(=O)N1CCN(c2cc(-c3noc(C4(C)CCCc5sc(N)c(C#N)c54)n3)nc(N3CCN(CC)CC3)c2)CC1` (centres unmarked) [Ia-123], 0.0095 µM; in that of `C=CC(=O)N1CCN(c2cc(-c3noc(C4(C)CCCc5sc(N)c(C#N)c54)n3)nc(N3CCN(C(C)C)C(C)C3)c2)CC1` (centres unmarked) [Ia-150], 0.0095 µM.
For the compound `C=CC(=O)N1CCN(c2cc(OCCCN(C)C)cc(-c3noc(C4(C)CCCc5sc(N)c(C#N)c54)n3)c2)CC1` (centres unmarked) [Ia-142], the half-inhibitory concentration (IC50) came to 0.0364 µM.
`C=CC(=O)N1CCC(Oc2cc(-c3noc([C@@]4(C)CCCc5sc(N)c(C#N)c54)n3)nc(N3CCN(C)CC3)c2)CC1` [Ia-91]: the concentration for half-maximal inhibition (IC50) came to 0.0116 µM.
Turning to `C=CC(=O)N1CCN(c2cc(-c3noc(C4(C)CCCc5sc(N)c(C#N)c54)n3)nc(N3CCN(C)CC3)c2)CC1` (centres unmarked) [Ia-87], the IC50 stood at 0.01 µM.
On the same count and under the same terms, next, `C=CC(=O)N1CCN(c2cc(-c3noc(C4(C)CCCc5sc(N)c(C#N)c54)n3)nc(N3CCN(C4CCC(F)(F)CC4)CC3)c2)CC1` (centres unmarked) [Ia-24]: 0.0801 µM; `C=CC(=O)N1CCN(c2cc(-c3noc(C4(C)CCCc5sc(N)c(C#N)c54)n3)nc(N3C4CCC3CN(C)C4)c2)CC1` (centres unmarked) [Ia-16]: 0.0246 µM; `C=CC(=O)N1CCC(Oc2cc(-c3noc(C4(C)CCC(C)c5sc(N)c(C#N)c54)n3)nc(N3CCN(C)CC3)c2)CC1` (centres unmarked) [Ia-120]: 0.111 µM.
Turning to `C=CC(=O)N1CCN(c2cc(-c3noc(C4(C)CCCc5sc(N)c(C#N)c54)n3)nc(N3C[C@@H](C)N(CC)[C@@H](C)C3)c2)CC1` (some centres unmarked) [Ia-21], the IC50 amounted to 0.0074 µM.
Take `C=CC(=O)N1CCN(c2cc(-c3noc([C@@]4(C)CC[C@H](C)c5sc(N)c(C#N)c54)n3)nc(N3CCN(C4CCCC4)CC3)c2)CC1` [Ia-11]: the IC50 amounted to 0.0123 µM.
The same measure, in the same setting: in the case of `C=CC(=O)N1C[C@@H]2CN(c3cc(-c4noc(C5(C)CCCc6sc(N)c(C#N)c65)n4)nc(N4CCN(C5CCCC5)CC4)c3)[C@@H]2C1` (some centres unmarked) [Ia-9] it was 0.0546 µM.

The values are drawn from patent US20230212164A1, “ANNULATED 2-AMINO-3-CYANO THIOPHENES AND DERIVATIVES FOR THE TREATMENT OF CANCER” (BOEHRINGER INGELHEIM INTERNATIONAL GMBH, priority 2020, published 2023).
